From PubChem BioAssay (NCI) come the findings set out here.

SMILES strings stand for the structures.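 Grown in 96-well plates, cells were treated for 48 hours with each compound at five concentrations. Insufficient inhibition: endpoint recorded as highest concentration tested. Abbreviation: GI50, concentration required for 50% inhibition of growth. At the TGI there is no net growth.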

Common to all, as to assay: NCI anticancer screen, dose series, 48 h
In experiment [1] the test system is UACC-257 melanoma.
The subject of experiment [2] is HL-60(TB) leukemia.
Experiment [3] has as its system SK-MEL-5 melanoma.
The test system of experiment [4] is SK-MEL-2 melanoma.
Experiment [5] concerns SN12C renal.
Experiment [6] has as its system RXF 393 renal.
In experiment [7] the test system is NCI-H23 lung.
For experiment [8], the system named is NCI-H226 lung.

For `COc1cc(C(C#N)NNC(=O)c2ccccc2O)ccc1O` (centres undefined), the TGI in experiment [1] was 92.9 µM; in experiment [2], 19.4 µM; in experiment [3], above 100 µM; in experiment [4], above 100 µM; in experiment [5], above 100 µM; in experiment [6], 6.3 µM. Besides, the results for the TGI in experiment [7] and in experiment [8] were 10.4 µM and 38 µM, respectively.

With `CCCN(CCCCC(NC(C)=O)C(=O)NCc1ccccc1)C(=O)NC` (centres undefined), the TGI in experiment [1], in experiment [3], in experiment [4], in experiment [5], in experiment [6] and in experiment [7] was above 100 µM each time. This compound also registered a TGI in experiment [8] above 100 µM.

In the case of `c1cc2c(cnc3cscc32)s1`, the TGI in experiment [1], in experiment [2], in experiment [3], in experiment [4], in experiment [5] and in experiment [6] was above 100 µM throughout. In addition, the TGI in experiment [7] and in experiment [8] was above 100 µM in each case.

As to `O=C1c2cccc3cc([N+](=O)[O-])cc(c23)C(=O)N1CCCN1CCN(CCCN2C(=O)c3cccc4cc([N+](=O)[O-])cc(c34)C2=O)CC1`, the TGI in experiment [1] was 8.97 µM; in experiment [2], 12.8 µM; in experiment [3], 2.37 µM; in experiment [4], 5.34 µM; in experiment [5] it was above 100 µM; in experiment [6] it was 1.76 µM. Also, the TGI in experiment [7] came to 7.64 µM; in experiment [8], 1.37 µM.

Take `COC(=O)/C(=N/NC(C)(C)C)C(C(=O)C=C(C)C)C(=O)C(=O)Nc1ccc(Cl)cc1C` (centres undefined): the TGI in experiment [1], in experiment [2], in experiment [3], in experiment [4], in experiment [5] and in experiment [7] was above 100 µM each time. The TGI in experiment [8] was above 100 µM.

For the compound `O=C(N=Nc1c(O)[nH]c2ccccc12)c1ccccc1O`, the TGI was above 100 µM in experiment [1]; above 100 µM in experiment [2]; 63.6 µM in experiment [4]; above 100 µM in experiment [5]; above 100 µM in experiment [6]; 92 µM in experiment [7]. In experiment [8], the TGI was above 100 µM.

Turning to `c1c[nH]c(Cc2ncc(Cc3cnc[nH]3)[nH]2)n1`, the TGI was 21.5 µM in experiment [2]; 59.1 µM in experiment [3]; above 100 µM in experiment [4]; above 100 µM in experiment [5]; above 100 µM in experiment [7]; 46.3 µM in experiment [8].

Take `CCOC(=O)/C=C(/CN1C(=O)c2ccccc2C1=O)c1ccccc1`: the TGI in experiment [1], in experiment [3], in experiment [4], in experiment [5], in experiment [6] and in experiment [7] was above 100 µM in each case. Also, the TGI in experiment [8] was above 100 µM.

On to `CCCCCCCCCCCC(=O)C1=C(O)C(O)CCC1=O` (centres undefined), for which the TGI was 37.2 µM in experiment [1]; 38.8 µM in experiment [2]; 25 µM in experiment [4]; 78.3 µM in experiment [5]; above 100 µM in experiment [6]; 20 µM in experiment [7]. In experiment [8], this compound had a TGI of 70.3 µM.

Turning to `[Cl][Sn]([c]1ccccc1)[c]1ccccc1`, the GI50 in experiment [1] was 8.25 µM; in experiment [2] it was 2290 nM; in experiment [3], 3350 nM; in experiment [4], 2650 nM; in experiment [5], 9.18 µM; in experiment [6], 1550 nM. In addition, the GI50 was 5.19 µM in experiment [7] and 15.8 µM in experiment [8]. In addition, the TGI turned out to be 23.1 µM in experiment [1]; 6.46 µM in experiment [2]; 11.2 µM in experiment [3]; 11.9 µM in experiment [4]; 22.9 µM in experiment [5]; 3.24 µM in experiment [6]. Moreover, the TGI in experiment [7] worked out at 18.1 µM; in experiment [8], 29.6 µM.

In the case of `c1ccc(COc2ccc3[nH]c4c(ncc5[nH]c6ccccc6c54)c3c2)cc1`, the TGI in experiment [1] stood at 32.8 µM; in experiment [2], 4.35 µM; in experiment [3] it was 30 µM; in experiment [4], 30.8 µM; in experiment [5], 29.7 µM; in experiment [6], 23.3 µM. The TGI in experiment [7] was 35.3 µM; in experiment [8], 30.9 µM.

Take `CC(C)(C)N=CN1CCC(C(c2ccccc2)c2ccccc2)CC1`: the TGI is above 100 µM in experiment [1]; above 100 µM in experiment [3]; above 100 µM in experiment [4]; above 100 µM in experiment [5]; 98.7 µM in experiment [6]; above 100 µM in experiment [7].

In the case of `Cn1nnnc1[N-]Cc1ccccc1.[Au+].c1ccc([PH+](c2ccccc2)c2ccccc2)cc1`, the GI50 in experiment [1] is 2.01 µM; in experiment [2] it was 509 nM; in experiment [3], 1600 nM; in experiment [4] it was 2980 nM; in experiment [5] it was 5.01 µM; in experiment [6] it was 1290 nM. The results for the GI50 in experiment [7] and in experiment [8] were 3.35 µM and 8.49 µM, respectively. Further, the TGI came out at 7.78 µM in experiment [1]; 1.45 µM in experiment [2]; 3.6 µM in experiment [3]; 9.45 µM in experiment [4]; 17 µM in experiment [5]; 2.68 µM in experiment [6]. The TGI in experiment [7] is 10.4 µM; in experiment [8], 29.7 µM.

Turning to `CC(SC1=CC(=O)c2c(O)ccc(O)c2C1=O)C(=O)O` (centres undefined), the TGI in experiment [1] was above 66 µM; in experiment [2], above 41.9 µM; in experiment [3], above 100 µM; in experiment [4] it was above 100 µM; in experiment [5], above 77.7 µM; in experiment [6] it was above 64.4 µM. Also, the TGI in experiment [7] was above 90.4 µM; in experiment [8] it was above 100 µM.

On to `CC1=C2N3C[C@@H](n4c(=O)n(C)c(=O)n43)C23CCC1n1c(=O)n(C)c(=O)n13`, for which the TGI in experiment [1], in experiment [2], in experiment [3], in experiment [5], in experiment [7] and in experiment [8] was above 100 µM in each case.

Consider `CCCCCCCCCCCCC(SCCNC(=O)CCNC(=O)C(O)C(C)(C)COP(=O)(O)OP(=O)(O)OCC1OC(n2cnc3c(N)ncnc32)C(O)C1OP(=O)(O)O)C(=O)NCC(N)=O` (centres undefined), for which the TGI in experiment [1], in experiment [2], in experiment [3], in experiment [4], in experiment [5] and in experiment [6] was above 100 µM each time. Besides, the TGI in experiment [7] and in experiment [8] was above 100 µM in each case.

In the case of `COc1ccc(/C=[N+](\[O-])[C@H](COCc2ccccc2)c2ccccc2)cc1`, the TGI is above 100 µM in experiment [1]; 77.2 µM in experiment [2]; above 100 µM in experiment [4]; above 100 µM in experiment [6]; above 100 µM in experiment [7].

As to `c1cncc(C2c3[nH]c4ccccc4c3CCN2CCN2CCCCC2)c1` (centres undefined), the TGI is 99.4 µM in experiment [1]; above 100 µM in experiment [2]; above 100 µM in experiment [3]; above 100 µM in experiment [5]; above 100 µM in experiment [7].

Regarding `COc1ccc2c(C3(O)CCNCC3)c[nH]c2c1`, the TGI in experiment [2], in experiment [3], in experiment [4], in experiment [5], in experiment [6] and in experiment [7] was above 100 µM throughout.

In the case of `CCCc1ccc(N=Cc2cc(OC)c(OC)c(OC)c2)cc1`, the TGI in experiment [1] is above 100 µM; in experiment [2], above 67.5 µM; in experiment [3], above 100 µM; in experiment [4] it was above 100 µM; in experiment [5], above 100 µM; in experiment [6], above 100 µM. Further, the TGI in experiment [7] and in experiment [8] was above 100 µM each time.

As for `COC(=O)c1ccc(OCc2ccc3oc(=O)c(-c4ccccc4)nc3c2)cc1`, the TGI in experiment [1], in experiment [2], in experiment [3], in experiment [4], in experiment [5] and in experiment [7] was above 100 µM each time. In experiment [8], this compound gave a TGI above 100 µM.

Turning to `O=C(c1ccco1)N(C(=S)N1CCN(c2ccccc2)CC1)c1ccccc1`, the TGI in experiment [1], in experiment [2], in experiment [3], in experiment [4], in experiment [5] and in experiment [6] was above 100 µM throughout. In addition, the TGI in experiment [7] and in experiment [8] was above 100 µM throughout.

As to `CCOC(=O)C(=O)Nc1c(C)cccc1CC`, the TGI in experiment [1], in experiment [2], in experiment [3], in experiment [4], in experiment [5] and in experiment [6] was above 100 µM in each case. In addition, the TGI in experiment [7] and in experiment [8] was above 100 µM in each case.

In the case of `Cc1c(C(=O)CC(=O)C(=O)NC2C3CC4CC(C3)CC2C4)[n+](=O)c2ccccc2n1[O-]` (centres undefined), the TGI in experiment [1], in experiment [2], in experiment [3], in experiment [4], in experiment [5] and in experiment [6] was above 100 µM throughout. Also, the TGI in experiment [7] and in experiment [8] was above 100 µM in each case.

As for `CC1(C)OC2C(=O)OC(COCc3ccccc3)C2O1` (centres undefined), the TGI in experiment [1], in experiment [2], in experiment [3], in experiment [4], in experiment [5] and in experiment [6] was above 100 µM each time. Moreover, the TGI in experiment [7] and in experiment [8] was above 100 µM each time.

In the case of `COc1cccc2c1C1=CC(=O)CCC1C(C)(C)O2` (centres undefined), the TGI in experiment [1], in experiment [2], in experiment [3], in experiment [4], in experiment [5] and in experiment [6] was above 100 µM each time. Further, the TGI in experiment [7] and in experiment [8] was above 100 µM in each case.

Regarding `Cc1cc2occ(C)c(=O)c2c2c1OC(C)(C)S2`, the TGI in experiment [1], in experiment [2], in experiment [3], in experiment [4], in experiment [5] and in experiment [6] was above 100 µM in each case. The TGI in experiment [7] and in experiment [8] was above 100 µM throughout.

Regarding `CCOC(=O)c1c2ccc(/C=C/C(=O)OC)ccc-2c(C(=O)OCC)c1N`, the TGI in experiment [1], in experiment [2], in experiment [3], in experiment [4], in experiment [6] and in experiment [7] was above 100 µM in each case. In addition, the TGI in experiment [8] was above 100 µM.

`O=C(O)c1[nH]c(C(=O)O)c(CC(F)(F)C(F)(F)C(F)(F)F)c1CC(F)(F)C(F)(F)C(F)(F)F`: the TGI in experiment [1], in experiment [2], in experiment [3], in experiment [5], in experiment [6] and in experiment [7] was above 100 µM throughout. The same compound yielded a TGI in experiment [8] above 100 µM.

`CCc1cccc(C)c1NC(=O)CC1Sc2ccccc2NC1=O` (centres undefined): the TGI in experiment [1] was 57.7 µM; in experiment [2], 47.3 µM; in experiment [3], above 100 µM; in experiment [4], above 100 µM; in experiment [5], above 100 µM; in experiment [6], 73.7 µM. Further, the TGI is above 100 µM in experiment [7] and 64.6 µM in experiment [8].

As to `O=c1oc2c3ccc4ccccc4c3n(Cc3nc4ccccc4[nH]3)c2c2ccccc12`, the TGI in experiment [1] is above 90.6 µM; in experiment [2], 20 µM; in experiment [4], above 100 µM; in experiment [5], above 100 µM; in experiment [6] it was above 100 µM; in experiment [7], above 100 µM. Moreover, the TGI in experiment [8] was above 100 µM.

With `CC(=O)O/C(C)=C\C(=O)O/N=C(\N)c1ccc(C)cc1`, the TGI was above 100 µM in experiment [1]; 77.3 µM in experiment [2]; 58.5 µM in experiment [3]; 72.3 µM in experiment [4]; 57.4 µM in experiment [5]; 99.3 µM in experiment [6]. The figures for the TGI in experiment [7] and in experiment [8] were 48.4 µM and 92.9 µM, respectively.
